Results from PubChem BioAssay (NCI).
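Five concentrations, 48 hours, 96-well plates. TGI marks complete inhibition of growth.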

Key:
Assay in all cases: NCI tumour cell line growth inhibition, 48 h
786-0 renal = system: 786-0 renal
A498 renal = system: A498 renal
ACHN renal = system: ACHN renal
BT-549 breast = system: BT-549 breast
CAKI-1 renal = system: CAKI-1 renal
COLO 205 colon = system: COLO 205 colon
DU-145 prostate = system: DU-145 prostate
EKVX NSCLC = system: EKVX NSCLC
HCC-2998 colon = system: HCC-2998 colon
HCT-116 colon = system: HCT-116 colon
HCT-15 colon = system: HCT-15 colon
HOP-62 NSCLC = system: HOP-62 NSCLC
HOP-92 NSCLC = system: HOP-92 NSCLC
HS 578T breast = system: HS 578T breast
HT29 colon = system: HT29 colon
IGROV1 ovarian = system: IGROV1 ovarian
K-562 leukemia = system: K-562 leukemia
KM12 colon = system: KM12 colon
LOX IMVI melanoma = system: LOX IMVI melanoma
M14 melanoma = system: M14 melanoma
MALME-3M melanoma = system: MALME-3M melanoma
MCF7 breast = system: MCF7 breast
MDA-MB-231 breast = system: MDA-MB-231 breast
MDA-MB-435 = system: MDA-MB-435
MDA-N = system: MDA-N
MOLT-4 leukemia = system: MOLT-4 leukemia
NCI-H226 lung = system: NCI-H226 lung
NCI-H23 lung = system: NCI-H23 lung
NCI-H460 lung = system: NCI-H460 lung
NCI-H522 lung = system: NCI-H522 lung
NCI/ADR-RES ovarian = system: NCI/ADR-RES ovarian
OVCAR-3 ovarian = system: OVCAR-3 ovarian
OVCAR-4 ovarian = system: OVCAR-4 ovarian
OVCAR-5 ovarian = system: OVCAR-5 ovarian
OVCAR-8 ovarian = system: OVCAR-8 ovarian
PC-3 prostate = system: PC-3 prostate
RPMI-8226 leukemia = system: RPMI-8226 leukemia
RXF 393 renal = system: RXF 393 renal
SF-268 CNS = system: SF-268 CNS
SF-295 CNS = system: SF-295 CNS
SF-539 CNS = system: SF-539 CNS
SK-MEL-2 melanoma = system: SK-MEL-2 melanoma
SK-MEL-28 melanoma = system: SK-MEL-28 melanoma
SK-MEL-5 melanoma = system: SK-MEL-5 melanoma
SK-OV-3 ovarian = system: SK-OV-3 ovarian
SN12C renal = system: SN12C renal
SNB-19 CNS = system: SNB-19 CNS
SNB-75 CNS = system: SNB-75 CNS
SR leukemia = system: SR leukemia
SW-620 colon = system: SW-620 colon
T-47D breast = system: T-47D breast
TK-10 renal = system: TK-10 renal
U251 CNS = system: U251 CNS
UACC-257 melanoma = system: UACC-257 melanoma
UACC-62 melanoma = system: UACC-62 melanoma
UO-31 renal = system: UO-31 renal
A549 NSCLC = system: A549 NSCLC
CCRF-CEM leukemia = system: CCRF-CEM leukemia
HL-60(TB) leukemia = system: HL-60(TB) leukemia

Measured: TGI

C[C@@]12C[C@@H](c3ccccc3O1)N1Cc3ccccc3CSC1=N2
> 100 µM: 786-0 renal | A498 renal | ACHN renal | BT-549 breast | CAKI-1 renal | COLO 205 colon | DU-145 prostate | EKVX NSCLC | HCC-2998 colon | HCT-116 colon | HCT-15 colon | HOP-62 NSCLC | HOP-92 NSCLC | HS 578T breast | HT29 colon | IGROV1 ovarian | K-562 leukemia | KM12 colon | LOX IMVI melanoma | M14 melanoma | MALME-3M melanoma | MCF7 breast | MDA-MB-231 breast | MDA-MB-435 | MDA-N | MOLT-4 leukemia | NCI-H226 lung | NCI-H23 lung | NCI-H460 lung | NCI-H522 lung | NCI/ADR-RES ovarian | OVCAR-3 ovarian | OVCAR-4 ovarian | OVCAR-5 ovarian | OVCAR-8 ovarian | PC-3 prostate | RPMI-8226 leukemia | RXF 393 renal | SF-268 CNS | SF-295 CNS | SF-539 CNS | SK-MEL-2 melanoma | SK-MEL-28 melanoma | SK-MEL-5 melanoma | SK-OV-3 ovarian | SN12C renal | SNB-19 CNS | SNB-75 CNS | SR leukemia | SW-620 colon | T-47D breast | TK-10 renal | U251 CNS | UACC-257 melanoma | UACC-62 melanoma | UO-31 renal

CCn1c(=O)c2c3ccc(OC)cc3[nH]c2c2ccc(OC)cc21
96.1 µM: SNB-75 CNS
> 100 µM: 786-0 renal | A498 renal | A549 NSCLC | ACHN renal | BT-549 breast | CAKI-1 renal | CCRF-CEM leukemia | COLO 205 colon | DU-145 prostate | EKVX NSCLC | HCT-116 colon | HCT-15 colon | HOP-62 NSCLC | HOP-92 NSCLC | HS 578T breast | HT29 colon | IGROV1 ovarian | K-562 leukemia | KM12 colon | M14 melanoma | MALME-3M melanoma | MCF7 breast | MDA-MB-231 breast | MDA-MB-435 | MDA-N | MOLT-4 leukemia | NCI-H226 lung | NCI-H23 lung | NCI-H522 lung | NCI/ADR-RES ovarian | OVCAR-3 ovarian | OVCAR-4 ovarian | OVCAR-5 ovarian | OVCAR-8 ovarian | PC-3 prostate | RXF 393 renal | SF-268 CNS | SF-295 CNS | SF-539 CNS | SK-MEL-28 melanoma | SK-MEL-5 melanoma | SK-OV-3 ovarian | SN12C renal | SNB-19 CNS | SR leukemia | SW-620 colon | T-47D breast | TK-10 renal | U251 CNS | UACC-257 melanoma | UACC-62 melanoma | UO-31 renal
62.7 µM: HCC-2998 colon

O=C(/C=C/c1ccccc1)Oc1cccc(Br)c1
59.3 µM: SR leukemia
47.4 µM: MCF7 breast
29.2 µM: NCI-H522 lung
52.1 µM: HL-60(TB) leukemia
40.2 µM: RPMI-8226 leukemia
42.2 µM: HCT-15 colon
68.3 µM: SF-295 CNS
> 100 µM: 786-0 renal | A498 renal | A549 NSCLC | ACHN renal | BT-549 breast | CAKI-1 renal | COLO 205 colon | DU-145 prostate | EKVX NSCLC | HCC-2998 colon | HCT-116 colon | HOP-62 NSCLC | HOP-92 NSCLC | HS 578T breast | HT29 colon | IGROV1 ovarian | KM12 colon | LOX IMVI melanoma | M14 melanoma | MDA-MB-231 breast | MDA-MB-435 | MDA-N | NCI-H226 lung | NCI-H23 lung | NCI-H460 lung | NCI/ADR-RES ovarian | OVCAR-3 ovarian | OVCAR-4 ovarian | OVCAR-5 ovarian | OVCAR-8 ovarian | PC-3 prostate | RXF 393 renal | SF-268 CNS | SF-539 CNS | SK-MEL-2 melanoma | SK-MEL-28 melanoma | SK-MEL-5 melanoma | SK-OV-3 ovarian | SN12C renal | SNB-19 CNS | SNB-75 CNS | SW-620 colon | T-47D breast | TK-10 renal | U251 CNS | UACC-257 melanoma | UACC-62 melanoma | UO-31 renal
29.8 µM: MOLT-4 leukemia

O=C1c2cc3c(cc2CC1Cc1ccc2c(c1)CCC2)CCC3 (configuration not stated)
63.1 µM: T-47D breast
75.5 µM: SNB-75 CNS
> 100 µM: A498 renal | A549 NSCLC | ACHN renal | BT-549 breast | CCRF-CEM leukemia | DU-145 prostate | EKVX NSCLC | HCC-2998 colon | HCT-116 colon | HCT-15 colon | HL-60(TB) leukemia | HOP-62 NSCLC | HS 578T breast | HT29 colon | IGROV1 ovarian | K-562 leukemia | KM12 colon | LOX IMVI melanoma | M14 melanoma | MALME-3M melanoma | MCF7 breast | MDA-MB-231 breast | MDA-MB-435 | MDA-N | MOLT-4 leukemia | NCI-H23 lung | NCI-H460 lung | NCI-H522 lung | NCI/ADR-RES ovarian | OVCAR-3 ovarian | OVCAR-4 ovarian | OVCAR-5 ovarian | OVCAR-8 ovarian | PC-3 prostate | RPMI-8226 leukemia | RXF 393 renal | SF-268 CNS | SF-295 CNS | SF-539 CNS | SK-MEL-2 melanoma | SK-MEL-28 melanoma | SK-MEL-5 melanoma | SK-OV-3 ovarian | SN12C renal | SNB-19 CNS | SW-620 colon | TK-10 renal | U251 CNS | UACC-257 melanoma | UACC-62 melanoma | UO-31 renal
95.1 µM: SR leukemia
65 µM: NCI-H226 lung
52.2 µM: COLO 205 colon
